Residues, ends and D or L forms follow the SMILES beside them.
What was measured:
[1] = target: T1, Dipeptidyl-peptidase IV (D7052, from porcine kidney) (Sus scrofa, UniProt P22411); test: Determination of DPP-IV-inhibitory activity (Gly-Pro-p-nitroanilide substrate, absorbance 405 nm); format: biochemical; details: synthetic peptides and diprotin A, present example (FIG. 4A-4C)
T1 construct: Dipeptidyl-peptidase IV (D7052, from porcine kidney); purchased Sigma-Aldrich D7052; host or cells: porcine kidney (tissue-derived)
T1 sequence (P22411 whole entry): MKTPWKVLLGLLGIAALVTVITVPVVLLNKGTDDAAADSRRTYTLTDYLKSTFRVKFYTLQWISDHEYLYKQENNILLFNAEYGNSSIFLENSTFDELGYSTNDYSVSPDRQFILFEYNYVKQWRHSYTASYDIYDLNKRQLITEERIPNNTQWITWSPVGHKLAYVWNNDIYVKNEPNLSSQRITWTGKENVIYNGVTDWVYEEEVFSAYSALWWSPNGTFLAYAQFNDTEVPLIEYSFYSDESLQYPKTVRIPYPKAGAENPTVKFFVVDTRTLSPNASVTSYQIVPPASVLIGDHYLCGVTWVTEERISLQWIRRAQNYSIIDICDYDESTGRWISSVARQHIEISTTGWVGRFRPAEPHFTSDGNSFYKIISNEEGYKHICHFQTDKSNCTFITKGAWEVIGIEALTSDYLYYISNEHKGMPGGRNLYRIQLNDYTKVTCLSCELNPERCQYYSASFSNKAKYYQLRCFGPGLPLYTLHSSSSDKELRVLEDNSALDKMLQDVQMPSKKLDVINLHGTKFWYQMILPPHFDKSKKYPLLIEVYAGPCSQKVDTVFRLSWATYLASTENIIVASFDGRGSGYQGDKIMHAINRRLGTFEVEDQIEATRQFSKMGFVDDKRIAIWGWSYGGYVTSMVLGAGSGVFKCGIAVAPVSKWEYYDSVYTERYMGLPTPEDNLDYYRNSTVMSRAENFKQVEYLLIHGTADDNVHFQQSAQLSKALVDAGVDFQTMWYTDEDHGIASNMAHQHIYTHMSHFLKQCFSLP
Protocol: Atlantic salmon (Salmo salar) fish skins, processing byproducts recovered from fresh skin-off fillets, were supplied by Albion Fisheries Ltd. (Vancouver, BC, Canada). The fish skins were transferred on ice, vacuum packed, and stored at −25° C. until use. Three food-grade proteolytic enzymes were donated by Neova Technologies Inc. (Abbotsford, BC, Canada). Alcalase 2.4 L FG (from Bacillus licheniformis, 2.4 AU/g) and Flavourzyme 1000 L (from Aspergillus oryzae, 1000 LAPU/g) were products from Novo-zymes North America Inc. (Salem, N.C., […]), whereas bromelain (from pineapple stem, 2000 GDU/g) was manufactured by Ultra Bio-Logics Inc. (Montreal, QC, Canada), Dipeptidyl-peptidase IV (D7052, from porcine kidney), Gly-Prop-nitroanilide hydrochloride, trichloroacetic acid (TCA), L-leucine, and diprotin A were purchased from Sigma-Aldrich (St. Louis, Mo.). Trinitrobenzenesulfonic acid (TNBS) was obtained from Fluka Biochemika Oakville ON, Canada). Other chemicals and reagents used were of analytical grade and commercially available,
DPP-IV activity determination was performed in 96-well microplates. In order to measure an increment in absorbance at 405 nm, Gly-Pro-p-nitroanilide is used as a DPP-IV substrate. […] The absorbance of the resulting solution was measured at 405 nm with a microplate reader (iEMS reader MF; Labsystems, Helsinki, Finland).

[2] = target: DPP-IV (Homo sapiens, UniProt P27487); details: previous studies; read-out: IC50 values against DPP-IV; cited from earlier work
Sequence of DPP-IV (P27487 whole entry, species assumed): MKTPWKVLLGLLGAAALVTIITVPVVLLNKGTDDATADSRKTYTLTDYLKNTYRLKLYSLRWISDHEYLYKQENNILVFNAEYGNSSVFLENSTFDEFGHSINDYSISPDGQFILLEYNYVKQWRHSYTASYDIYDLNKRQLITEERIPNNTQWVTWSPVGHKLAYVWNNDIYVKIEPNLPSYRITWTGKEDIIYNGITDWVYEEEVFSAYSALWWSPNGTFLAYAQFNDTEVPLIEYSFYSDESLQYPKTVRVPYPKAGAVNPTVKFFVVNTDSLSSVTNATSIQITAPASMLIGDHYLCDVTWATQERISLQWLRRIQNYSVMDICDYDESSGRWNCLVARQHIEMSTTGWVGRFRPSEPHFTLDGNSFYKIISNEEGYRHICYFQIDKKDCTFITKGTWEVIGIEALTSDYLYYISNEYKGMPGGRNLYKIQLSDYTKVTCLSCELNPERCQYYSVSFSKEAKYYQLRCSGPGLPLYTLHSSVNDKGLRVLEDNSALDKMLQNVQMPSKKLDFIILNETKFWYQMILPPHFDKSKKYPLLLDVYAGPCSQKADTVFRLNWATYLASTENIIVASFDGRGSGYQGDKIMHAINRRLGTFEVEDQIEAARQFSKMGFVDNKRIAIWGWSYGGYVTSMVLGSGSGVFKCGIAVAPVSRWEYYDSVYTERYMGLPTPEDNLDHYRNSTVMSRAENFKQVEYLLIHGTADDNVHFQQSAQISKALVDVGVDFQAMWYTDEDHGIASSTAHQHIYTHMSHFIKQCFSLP

IC50 [1] [µM] | Compound | IC50 [2] [µM]
49.6 | C[C@H](NC(=O)[C@@H]1CCCN1C(=O)CN)C(=O)N[C@@H](CCC(=O)O)C(=O)O [Gly-Pro-Ala-Glu] (H-GPAE-OH; N-terminus and C-terminus assumed) | 
41.9 | C[C@H](NC(=O)CNC(=O)[C@@H]1CCCN1C(=O)CN)C(=O)O [Gly-Pro-Gly-Ala] (H-GPGA-OH; N-terminus and C-terminus assumed) | 
 | Ile-Pro-Ala [peptide prepared from β-lactoglobulin] | 49
 | VAGTWY [Val-Ala-Gly-Thr-Trp-Tyr, peptide prepared from β-lactoglobulin] | 174

Reference: US20140193463A1, “PEPTIDE FOR INHIBITING DIPEPTIDYL-PEPTIDASE IV” (CHINA MEDICAL UNIVERSITY, priority 2013, published 2014)
